From patent US7122643B2, “Cytostatic lanthanum compounds” (Faustus Forschungs Cie. Translational Cancer Research GmbH, priority 2001, dated 2006)

How the values were obtained:
[1] = system: 13 human tumour xenografts and 10 human tumour cell lines
[2] = system: over 50 human tumour cell lines
[3] = mean over 13 human tumour xenografts and 10 human tumour cell lines

[tris(1,10-phenantrolin)lanthanum(III)]trithiocyanate
Cytostatic activity (in words) ([1]; 13 human tumour xenografts and 10 human tumour cell lines): good cytostatic activity
Activity relative to average of the panel ([1]; mammary carcinoma cell lines MCF7, MDA468A, parvicellular bronchial carcinoma cell line DMS 114, one each of melanoma, ovarian, kidney cell and non-parvicellular bronchial carcinoma xenografts): Above average activities
Mean IC50 [1, 3]: 3.60 µg/mL
Mean IC90 [1, 3]: 12.1 µg/mL
Tumour type selectivity ([1]; prostate and colorectal carcinoma): selectivity for prostate and colorectal carcinoma
IC50 ([1]; read-out: Mean IC50, mean over 13 human tumour xenografts and 10 human tumour cell lines): 4.21 µM
IC90 ([1]; read-out: Mean IC90, mean over 13 human tumour xenografts and 10 human tumour cell lines): 14.2 µM
Cytostatic effectiveness (in words) ([2]; over 50 human tumour cell lines, 48-h): Good effectiveness
Activity relative to average of the panel ([2]; some melanoma and kidney cell carcinoma cell lines): Above average activities
